# Results from patent US20120121540A1 (priority 2007, published 2012).
# Test: HCV replicon assay (luciferase reporter, ET cell line)
# Format: cell-based
# Details: Hepatitis C virus, HCV replicon luciferase activity in ET cells
# Procedure, shortened: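 ET cells carry a stable luciferase-ubiquitin-neo/NS3-5B subgenomic HCV replicon with adaptive mutations. Compounds (0.1 nM to […], 0.5% DMSO) were added 24 h after plating, and luciferase was read 48-72 h later. EC50 came from 10-point 2-fold dilutions fitted to a Hill equation; TC50 was measured in parallel by WST-1.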
row,SMILES,inhibition at 10 µM
1,"N#Cc1cccc(F)c1C1=CCN(C(=O)c2nc3c(C(F)(F)F)cc(-c4ccoc4)cn3c2Cl)CC1 [Compound 565, 2-[1-(3-Chloro-6-furan-3-yl-8-trifluoromethyl-imidazo[1,2-a]pyridine-2-carbonyl)-1,2,3,6-tetrahydro-pyridin-4-yl]-3-fluoro-benzonitrile]",98%
2,"O=C(c1nc2c(C(F)(F)F)cc(-c3ccccc3)cn2c1Cl)N1CCC(c2cccc(F)c2)C1 (centres unmarked) [Compound 641, (3-Chloro-6-phenyl-8-trifluoromethyl-imidazo[1,2-a]pyridin-2-yl)-[3-(3-fluoro-phenyl)-pyrrolidin-1-yl]-methanone]",80.9%
3,"O=C(NCc1ccccc1F)c1cc2cc(-c3ccccc3)cc(I)n2n1 [Compound 128, 7-Iodo-5-phenyl-pyrazolo[1,5-a]pyridine-2-carboxylic Acid 2-fluoro-benzylamide]",65.2%
4,"O=C(NCc1ccccc1C(F)(F)F)c1nc2c(C(F)(F)F)cc(-c3ccco3)cn2c1Cl [Compound 179, 3-Chloro-6-furan-2-yl-8-trifluoromethyl-imidazo[1,2-a]pyridine-2-carboxylic acid 2-trifluoromethyl-benzylamide]",37.5%
5,"O=C(NCc1cccs1)c1cc2cc(-c3ccccc3)cc(Cl)c2[nH]1 [Compound 106, 7-Chloro-5-phenyl-1H-indole-2-carboxylic Acid (thiophen-2-ylmethyl)-amide]",60.8%
6,"O=C(c1cn2cc(-c3ccoc3)cc(C(F)(F)F)c2n1)N1CCC(c2cccc(F)c2)C1 (centres unmarked) [Compound 638, [3-(3-Fluoro-phenyl)-pyrrolidin-1-yl]-(6-furan-3-yl-8-trifluoromethyl-imidazo[1,2-a]pyridin-2-yl)-methanone]",98.5%
7,"O=C(c1nc2c(C(F)(F)F)cc(-c3ccco3)cn2c1Cl)N1CCN(Cc2ccccc2)CC1 [Compound 324, (4-Benzyl-piperazin-1-yl)-(3-chloro-6-furan-2-yl-8-trifluoromethyl-imidazo[1,2-a]pyridin-2-yl)-methanone]",34.6%
8,"O=C(NCc1cccs1)c1cc2cc(-c3ccco3)cc(C(F)(F)Cl)n2n1 [Compound 133, 7-(Chloro-difluoro-methyl)-5-furan-2-yl-pyrazolo[1,5-a]pyridine-2-carboxylic Acid (thiophen-2-ylmethyl)-amide]",99.8%
9,"CS(=O)(=O)N1CC(NC(=O)c2nc3c(C(F)(F)F)cc(-c4ccoc4)cn3c2Cl)C1 [Compound 510, 3-Chloro-6-furan-3-yl-8-trifluoromethyl-imidazo[1,2-a]pyridine-2-carboxylic Acid (1-methanesulfonyl-azetidin-3-yl)-amide]",24%
10,"O=C(c1nc2c(C(F)(F)F)cc(-c3ccoc3)cn2c1Cl)N1CCC(c2ccccc2Cl)C1 (centres unmarked) [Compound 341, (3-Chloro-6-furan-3-yl-8-trifluoromethyl-imidazo[1,2-a]pyridin-2-yl)-[3-(2-chloro-phenyl)-pyrrolidin-1-yl]-methanone]",83.6%
11,"O=C(NCc1cccs1)c1nc2c(C(F)(F)F)cc(-c3ccc(F)cc3)cn2c1Cl [Compound 178, 3-Chloro-6-(4-fluoro-phenyl)-8-trifluoromethyl-imidazo[1,2-a]pyridine-2-carboxylic acid (thiophen-2-ylmethyl)-amide]",75.2%
12,"COc1cccc(OC)c1C1=CCN(C(=O)c2nc3c(C(F)(F)F)cc(-c4ccoc4)cn3c2Cl)CC1 [Compound 562, (3-Chloro-6-furan-3-yl-8-trifluoromethyl-imidazo[1,2-a]pyridin-2-yl)-[4-(2,6-dimethoxy-phenyl)-3,6-dihydro-2H-pyridin-1-yl)-methanone]",13.4%
13,"O=C(NCc1ccccc1F)c1nc2c(C(F)(F)F)cc(-c3ccco3)cn2c1Cl [Compound 201, 3-Chloro-6-furan-2-yl-8-trifluoromethyl-imidazo[1,2-a]pyridine-2-carboxylic acid 2-fluoro-benzylamide]",72.4%
14,"Fc1cccc(C2CCN(Cc3cn4cc(-c5ccoc5)cc(C(F)(F)F)c4n3)C2)c1 (centres unmarked) [Compound 474, 2-[3-(3-Fluoro-phenyl)-pyrroidin-1-ylmethyl]-6-furan-3-yl-8-trifluoromethyl-imidazo[1,2-a]pyridine]",0.7%
15,"CN(Cc1cccs1)C(=O)c1cn2cc(-c3ccco3)cc(C(F)(F)F)c2n1 [Compound 146, 6-Furan-2-yl-8-trifluoromethylimidazo[1,2-a]pyridine-2-carboxylic Acid Methyl-thiophen-2-ylmethyl-amide]",35.1%
16,"CC(C)(C)OC(=O)N[C@H]1CN(C(=O)c2nc3c(C(F)(F)F)cc(-c4ccoc4)cn3c2Cl)C[C@@H]1c1ccccc1 (stereo in doubt) [Compound 456, (-1-(3-Chloro-6-furan-3-yl-8-trifluoromethyl-imidazo[1,2-a]pyridine-2-carbonyl)-4-phenyl-pyrrolidin-3-yl)-carbamic acid tert-butyl ester]",79.3%

row,SMILES,inhibition at 10 µM
1,"CS(=O)(=O)NC1CN(C(=O)c2nc3c(C(F)(F)F)cc(-c4ccoc4)cn3c2Cl)C1 [Compound 491, N-[1-(3-Chloro-6-furan-3-yl-8-trifluoromethyl-imidazo[1,2-a]pyridine-2-carbonyl)-azetidin-3-yl]-methanesulfonamide]",92.4%
2,"O=C(NCc1ccc(Cl)s1)c1nn2c(C(F)(F)F)cc(-c3ccccc3)cc2c1Cl [Compound 123, 3-Chloro-5-phenyl-7-trifluoromethyl-pyrazolo[1,5-a]pyridine-2-carboxylic Acid (5-chloro-thiophen-2-ylmethyl)-amide]",46.1%
3,"CN(C)Cc1c(C(=O)NCc2cccs2)nc2c(C(F)(F)F)cc(-c3cccc(F)c3)cn12 [Compound 365, 3-Dimethylaminomethyl-6-(3-fluoro-phenyl)-8-trifluoromethyl-imidazo[1,2-a]pyridine-2-carboxylic Acid (thiophen-2-ylmethyl)-amide]",4.4%
4,"O=C(NCc1cccs1)c1nc2c(C(F)(F)F)cc(-c3ccsc3)cn2c1Cl [Compound 160, 3-Chloro-6-thiophen-3-yl-8-trifluoromethyl-imidazo[1,2-a]pyridine-2-carboxylic acid (thiophen-2-ylmethyl)-amide]",97.3%
5,"O=C(NCc1cccs1)c1nn2c(C(F)(F)F)cc(-c3ccccc3)cc2c1Cl [Compound 122, 3-Chloro-5-phenyl-7-trifluoromethyl-pyrazolo[1,5-a]pyridine-2-carboxylic Acid (thiophen-2-ylmethyl)-amide]",94.3%
6,"O=C(c1nc2c(C(F)(F)F)cc(-c3ccoc3)cn2c1Cl)N1CCCC(c2cccc(F)c2)C1 (centres unmarked) [Compound 549, (3-Chloro-6-furan-3-yl-8-trifluoromethyl-imidazo[1,2-a]pyridin-2-yl)-[3-(3-fluoro-phenyl)-piperidin-1-yl)-methanone]",94.3%
7,"O=C(NCc1cccs1)c1cc2cc(-c3ccccc3)cc(N3CCOCC3)n2n1 [Compound 148, 7-Morpholin-4-yl-5-phenyl-pyrazolo[1,5-a]pyridine-2-carboxylic Acid (thiophen-2-ylmethyl)-amide]",27.7%
8,"CC(C)(C)OC(=O)n1cccc1-c1cc(C(F)(F)F)c2nc(C(=O)NCc3cccs3)c(Cl)n2c1 [Compound 281, 2-{3-Chloro-2-[(thiophen-2-ylmethyl)-carbamoyl]-8-trifluoromethyl-imidazo[1,2-a]pyridin-6-yl}-pyrrole-1-carboxylic Acid Tert-butyl Ester]",69.3%
9,"CS(=O)(=O)NC1CN(C(=O)c2nc3c(C(F)(F)F)cc(-c4cn[nH]c4)cn3c2Br)C1 [Compound 522, N-{1-[3-Bromo-6-(1H-pyrazol-4-yl)-8-trifluoromethyl-imidazo[1,2-a]pyridine-2-carbonyl]-azetidin-3-yl}-methanesulfonamide]",88.6%
10,"O=C(c1nc2c(C(F)(F)F)cc(-c3ccoc3)cn2c1Cl)N1CCC(c2cccs2)C1 (centres unmarked) [Compound 423, (3-Chloro-6-furan-3-yl-8-trifluoromethyl-imidazo[1,2-a]pyridin-2-yl)-(3-thiophen-2-yl-pyrrolidin-1-yl)-methanone]",99.8%
11,"N#Cc1ccccc1C1CCN(C(=O)c2nc3c(C(F)(F)F)cc(-c4ccoc4)cn3c2Cl)CC1 [Compound 540, 2-[1-(3-Chloro-6-furan-3-yl-8-trifluoromethyl-imidazo[1,2-a]pyridine-2-carbonyl)-piperidin-4-yl]-benzonitrile]",98.6%
12,"COc1ccc(F)c(C2=CCN(C(=O)c3nc4c(C(F)(F)F)cc(-c5ccoc5)cn4c3Cl)CC2)c1F [Compound 616, (3-Chloro-6-furan-3-yl-8-trifluoromethyl-imidazo[1,2-a]pyridin-2-yl)-[4-(2,6-difluoro-3-methoxy-phenyl)-3,6-dihydro-2H-pyridin-1-yl]-methanone]",64.9%
13,"O=C(c1nc2c(C(F)(F)F)cc(-c3ccco3)cn2c1Cl)N1CCCC1c1cccs1 (centres unmarked) [Compound 189, (3-Chloro-6-furan-2-yl-8-trifluoromethyl-imidazo[1,2-a]pyridin-2-yl)-(2-thiophen-2-yl-pyrrolidin-1-yl)-methanone]",97.3%
14,"C[C@@H](NC(=O)c1nc2c(C(F)(F)F)cc(-c3ccoc3)cn2c1Cl)c1ccccc1 [Compound 411, 3-Chloro-6-furan-3-yl-8-trifluoromethyl-imidazo[1,2-a]pyridine-2-carboxylic Acid (1-phenyl-ethyl)-amide]",74.8%
15,"O=C(c1nc2c(C(F)(F)F)cc(-c3ccoc3)cn2c1Cl)N1C2C=C(c3cscn3)CC1CC2 (centres unmarked) [Compound 634, [3-chloro-6-(furan-3-yl)-8-(trifluoromethyl)imidazo[1,2-a]pyridin-2-yl][3-(1,3-thiazol-4-yl)-8-azabicyclo[3.2.1]oct-2-en-8-yl]methanone]",86.4%
16,"CC(C)c1cc(-c2ccccc2)cn2c(Br)c(C(=O)N3CCC(c4cccc(F)c4)C3)nc12 (centres unmarked) [Compound 647, (3-Bromo-8-isopropyl-6-phenyl-imidazo[1,2-a]pyridin-2-yl)-[3-(3-fluoro-phenyl)-pyrrolidin-1-yl]-methanone]",58.6%
